From patent US20160257651A1, “NOVEL COMPOUND WITH ANTIBACTERIAL ACTIVITY” (priority 2013, published 2016)
Converted amounts (≈) assume the structure as drawn. Read-outs that look alike come from different tables or passages of the source.

How the values were obtained:
[1] = test system: S. aureus FDA209P (ATCC 6538P); assay: microbe, parasite or virus in culture; format: cell-based, Staphylococcus aureus; conditions: quinolone-susceptible MSSA, ParC 80S, GyrA 84S
Description: (§1) Then, the cell suspension was diluted 500 times with CAMHB mentioned above.

S. aureus Mu50 = assay: microbe, parasite or virus in culture; format: cell-based, Staphylococcus aureus; conditions: for MIC: S. aureus Mu50, quinolone-resistant MRSA, ParC S80F, GyrA S84L; for MIC ratio (Mu50 MIC/FDA209P MIC): MIC for S. aureus Mu50 / MIC for S. aureus FDA209P
Description: as §1

E. faecalis NCTC12201 = assay: MIC against Enterococcus bacteria; format: cell-based; conditions: Enterococcus faecalis, NCTC 12201 / VRE, quinolone-susceptible
Description: (§2) Antibacterial activities of the compound J-131CP against Enterococcus bacteria (Enterococcus faecium and Enterococcus faecalis) were examined by the following methods.
(§3) The compound J-131CP and quinolones were prepared in the same manner as that of Test Example 1-1.
(§4) Cell suspensions were prepared in the same manner as that of Test Example 1-1 described in the section of measurement of MIC in Test Example 1-1, except that the Enterococcus bacterium strains mentioned in Table 8 were used instead of Staphylococcus aureus, and MICs of the compound J-131CP and quinolones as control were determined for the strains in the same manner as that of Test Example 1-1 described in the section of measurement of MIC in Test Example 1-1. In Table 8, the amino acid substitution mutations in QRDR of the strains are underlined.

E. faecalis 36-15722 = assay: MIC against Enterococcus bacteria; format: cell-based, Enterococcus faecalis; conditions: Enterococcus faecalis, 3615722; E. faecalis 36-15722, quinolone-resistant; ParC 80Ile, GyrA 84Ile; read-out: MIC
Description: as §2, §3, §4

E. coli strain 1708 = assay: Antibacterial activity against Escherichia coli
Description: (§9) The numerical values in the tables indicate MIC (mg/L), Res means resistant bacterium, and Sus means susceptible bacterium.
(§10) Antibacterial activities against Escherichia coli of the compounds shown Table 19 were examined by the following method.
(§11) After completion of the culture, the cells were suspended in fresh TBS to prepare a cell suspension showing an absorbance of 0.3 at 578 nm.

E. coli strain 1709 = assay: Antibacterial activity against Escherichia coli
Description: as §9, §10, §11

S. pneumoniae BCLSP37 = assay: MIC against pneumococcus, CAMHB with 5 mass % LHB; format: cell-based, Streptococcus pneumoniae; conditions: Streptococcus pneumoniae, BCLSP37, S. pneumoniae BCLSP37, PSSP, quinolone-resistant; ParC 79Phe, GyrA 85Lys; read-out: MIC
Description: (§5) The S. pneumoniae strains used for this test belong to any one of the categories of penicillin-susceptible pneumococcus (penicillin-susceptible Streptococcus pneumoniae, PSSP), penicillin-intermediate pneumococcus (penicillin-intermediate Streptococcus pneumoniae, PISP), and penicillin-resistant pneumococcus (penicillin-resistant Streptococcus pneumoniae, PRSP).
(§6) The lysed horse blood was prepared by adding sterilized water to horse sterile defibered blood (produced by Nippon Bio-Supp. Center) at a ratio of 1:1, subjecting the mixture to freezing and thawing 5 times, then centrifuging the mixture twice at 10,000 rpm for 20 minutes, and filtering the supernatant through a filter.
(§7) The S. pneumoniae strains mentioned in Table 11 were each cultured overnight at 37° C. on a blood agar medium as stationary culture. The blood agar medium was prepared by adding 5 mass % ovine sterile defibered blood (produced by Nippon Bio-Supp. Center) to a heart infusion agar medium (produced by EIKEN CHEMICAL). Each S. pneumoniae strain cultured overnight at 37° C. as stationary culture was further subcultured overnight at 37° C. on fresh blood agar medium as stationary culture. After completion of the culture, cells of each pneumococcus strain were collected with a swab, and suspended in physiological saline, and the suspension was adjusted with physiological saline to show absorbance of 0.08 to 0.13 at 625 nm as measured with an absorbance meter (produced by Amersham), and further diluted 200 times with CAMHB containing 5 mass % LHB.
(§8) In Table 11, the amino acid substitution mutations in QRDR of the strains are underlined.

S. pneumoniae KBSP11 = assay: MIC against pneumococcus, CAMHB with 5 mass % LHB; format: cell-based, Streptococcus pneumoniae; conditions: Streptococcus pneumoniae, PRSP
Description: as §5, §6, §7, §8

[2] = Staphylococcus aureus, ATCC 6538P / FDA209P / MSSA, read-out: MIC

SMILES	MIC [1, 2] [µg/mL]	MIC (S. aureus Mu50; Staphylococcus aureus, MRSA) [µg/mL]	MIC (E. faecalis NCTC12201) [µg/mL]	MIC (E. faecalis 36-15722) [µg/mL]	MIC (E. coli strain 1708) [µg/mL]	MIC (E. coli strain 1709) [µg/mL]	MIC ratio (Mu50 MIC/FDA209P MIC) (S. aureus Mu50)	MIC [1] [µg/mL]	MIC (S. aureus Mu50) [µg/mL]	MIC (S. pneumoniae BCLSP37) [µg/mL]	MIC (S. pneumoniae KBSP11) [µg/mL]
CC(O)c1cc(=O)n(C2CC2)c2cc(-c3ccc4c(c3)CNC4C)c(F)cc12 (stereo not shown) [J-144M]	0.5 (≈ 1.32 µM)	4 (≈ 10.6 µM)	1 (≈ 2.64 µM)	2 (≈ 5.28 µM)	128 (≈ 338 µM)	4 (≈ 10.6 µM)					
CN1CCN(c2cc3c(cc2F)c(CO)cc(=O)n3C2CC2)CC1 [J-146, 1-cyclopropyl-6-fluoro-4-(hydroxymethyl)-7-(4-methylpiperazin-1-yl)quinolin-2(1H)-one]	16 (≈ 48.3 µM)	16 (≈ 48.3 µM)					1				
O=c1cc(CO)c2cc(F)c(N3CCC(O)CC3)cc2n1C1CC1 [J-147, 1-cyclopropyl-6-fluoro-4-(hydroxymethyl)-7-(4-hydroxypiperidin-1-yl)quinolin-2(1H)-one]	32 (≈ 96.3 µM)	16 (≈ 48.1 µM)					0.5				
C[C@H]1COc2c(-c3ccc(O)cc3)c(F)cc3c(CO)cc(=O)n1c23 [J-149A]	0.25 (≈ 0.732 µM)	0.5 (≈ 1.46 µM)			128 (≈ 375 µM)	16 (≈ 46.9 µM)					
Cc1cc(=O)n2c3c(c(-c4ccc(O)cc4)c(F)cc13)OCC2C (stereo not shown) [J-149d]	1 (≈ 3.07 µM)	0.5 (≈ 1.54 µM)			128 (≈ 393 µM)	128 (≈ 393 µM)					
CCc1cc(=O)n(C2CC2)c2cc(-c3ccc(O)cc3)c(F)cc12 [J-150, 1-cyclopropyl-4-ethyl-6-fluoro-7-(4-hydroxyphenyl)hydroquinolin-2-one]							0.0625	4 (≈ 12.4 µM)	0.25 (≈ 0.773 µM)		
O=c1cc(CO)c2cc(Cl)c(-c3ccc(O)cc3)cc2n1C1CC1 [J-152]	1 (≈ 2.93 µM)	0.25 (≈ 0.731 µM)			128 (≈ 374 µM)	128 (≈ 374 µM)					
COc1c(-c2ccc(O)cc2)ccc2c(CO)cc(=O)n(C3CC3)c12 [J-157, 1-cyclopropyl-8-methoxyl-4-(hydroxymethyl)-7-(4-hydroxyphenyl)hydroquinolin-2-one]							0.5	4 (≈ 11.9 µM)	2 (≈ 5.93 µM)		
O=c1cc(O)c2ccc(-c3ccc(O)cc3)c(OC(F)F)c2n1C1CC1 [J-158]	8 (≈ 22.3 µM)	4 (≈ 11.1 µM)			128 (≈ 356 µM)	128 (≈ 356 µM)					
CNc1ncc(-c2ccc3c(CO)cc(=O)n(C4CC4)c3c2)cc1C [J-165]	4 (≈ 11.9 µM)	8 (≈ 23.9 µM)			128 (≈ 382 µM)	128 (≈ 382 µM)					
O=C(O)c1c(CO)c2cc(F)c(-c3ccc(O)cc3)cc2n(C2CC2)c1=O [J-169]	8 (≈ 21.7 µM)	8 (≈ 21.7 µM)			128 (≈ 347 µM)	16 (≈ 43.3 µM)					
NC(=O)c1cc(=O)n(C2CC2)c2cc(-c3ccc(O)cc3)c(F)cc12 [J-173]	8 (≈ 23.6 µM)	2 (≈ 5.91 µM)			128 (≈ 378 µM)	128 (≈ 378 µM)				8 (≈ 23.6 µM)	8 (≈ 23.6 µM)
COCc1cc(=O)n(C2CC2)c2cc(-c3ccc(O)cc3)c(F)cc12 [J-175]	1 (≈ 2.95 µM)	0.5 (≈ 1.47 µM)			128 (≈ 377 µM)	128 (≈ 377 µM)				8 (≈ 23.6 µM)	32 (≈ 94.3 µM)
Nc1c(CO)c2cc(F)c(-c3ccc(O)cc3)cc2n(C2CC2)c1=O [J-179]	0.5 (≈ 1.47 µM)	1 (≈ 2.94 µM)			128 (≈ 376 µM)	128 (≈ 376 µM)					
